Laboratory results as given in patent US9108921B2, “Therapeutic compounds and compositions” (AGIOS PHARMACEUTICALS, INC, priority 2014, dated 2015).

Assays:
[1] = target: T1, PKR WT (Homo sapiens, UniProt P30613); assay: PKR WT enzymatic AC50 assay; type: biochemical; settings: wild type PKR
Outline: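 PK-LDH coupled assay, RT. Enzyme + cpd + PEP/NADH/LDH, 60 min pre-incubation, no ADP. ADP 0.22-1.65 mM to initiate; A340 kinetic read. Cpd 11 pts, 3-fold, 100 μM top.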

[2] = target: T1, PKR WT; assay: PKR WT cell based AC50 assay; settings: wild type PKR
[3] = target: PKR R532W (Homo sapiens, UniProt P30613, R532W); assay: PKR Mutant Assay, AC50 against PKR R532W; type: biochemical; settings: mutant PKR R532W enzyme
PKR R532W, sequence (P30613 whole entry R532W): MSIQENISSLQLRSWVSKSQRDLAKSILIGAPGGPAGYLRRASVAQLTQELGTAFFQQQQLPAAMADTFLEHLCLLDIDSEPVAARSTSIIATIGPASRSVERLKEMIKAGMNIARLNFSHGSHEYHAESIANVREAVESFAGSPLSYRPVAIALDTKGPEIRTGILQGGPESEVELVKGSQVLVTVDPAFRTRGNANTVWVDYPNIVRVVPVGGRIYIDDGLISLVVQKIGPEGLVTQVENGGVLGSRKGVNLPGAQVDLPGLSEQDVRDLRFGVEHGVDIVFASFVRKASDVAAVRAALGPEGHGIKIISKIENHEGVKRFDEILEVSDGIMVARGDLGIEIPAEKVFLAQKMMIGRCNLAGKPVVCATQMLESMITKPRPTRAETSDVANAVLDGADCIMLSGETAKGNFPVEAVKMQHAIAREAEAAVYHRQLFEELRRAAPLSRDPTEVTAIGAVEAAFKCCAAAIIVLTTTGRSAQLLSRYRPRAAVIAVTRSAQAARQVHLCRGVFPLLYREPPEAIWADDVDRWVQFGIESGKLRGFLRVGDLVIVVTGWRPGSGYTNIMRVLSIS
Outline: (§1)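 LDH-coupled read-out: NADH (180 uM) consumption followed as absorbance change at 340 nm, room temperature, after ADP addition. Mutant PKR enzyme 80-400 ng/well, PEP 0.1-0.5 mM, ADP 0.22-1.65 mM; compound preincubated 60 min with all components except ADP.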

[4] = target: PKR R510Q (Homo sapiens, UniProt P30613, R510Q); assay: PKR Mutant Assay, AC50 against PKR R510Q; type: biochemical; settings: mutant PKR R510Q enzyme
PKR R510Q, sequence (P30613 whole entry R510Q): as the sequence (P30613 whole entry R532W) above, with R510Q, W532R counted along it
Outline: as §1

T1 sequence (P30613 whole entry): as the sequence (P30613 whole entry R532W) above, with W532R counted along it

Structure (SMILES) | AC50 [1] [nM] | AC50 [2] [nM] | AC50 [3] [nM] | AC50 [4] [nM]
O=C(c1ccc(NS(=O)(=O)c2cccc3cccnc23)cc1)N1CCC(O)(c2cccc(C(F)(F)F)c2)CC1 [Compound 199, N-(4-(4-hydroxy-4-(3-(trifluoromethyl)phenyl)piperidine-1-carbonyl)phenyl)quinoline-8-sulfonamide] | < 100 | < 100 | < 100 | 101 to 1000
CC(C)CC1(O)CCN(C(=O)c2ccc(NS(=O)(=O)c3cc(F)cc4sc(N)nc34)cc2)CC1 [Compound 145, 2-amino-6-fluoro-N-(4-(4-hydroxy-4-isobutylpiperidine-1-carbonyl)phenyl)benzo[d]thiazole-4-sulfonamide] | < 100 | < 100 | < 100 | < 100
CC(C)(C)CC1(O)CCN(C(=O)c2ccc(NS(=O)(=O)c3cccc4cccnc34)cc2)CC1 [Compound 117, N-(4-(4-hydroxy-4-neopentylpiperidine-1-carbonyl)phenyl)quinoline-8-sulfonamide] | < 100 | < 100 | < 100 | < 100
Cc1ccccc1CC1(O)CCN(C(=O)c2ccc(NS(=O)(=O)c3cccc4cccnc34)cc2)CC1 [Compound 108, N-(4-(4-hydroxy-4-(2-methylbenzyl)piperidine-1-carbonyl)phenyl)quinoline-8-sulfonamide] | < 100 | < 100 | < 100 | < 100
O=C(c1ccc(NS(=O)(=O)c2cccc3cccnc23)cc1)N1CCC(O)(c2ncccc2Cl)CC1 [Compound 191, N-(4-(4-(3-chloropyridin-2-yl)-4-hydroxypiperidine-1-carbonyl)phenyl)quinoline-8-sulfonamide] | < 100 | < 100 | < 100 | 101 to 1000
O=C(c1ccc(NS(=O)(=O)c2cccc3cccnc23)cc1)N1CCC(O)(Cc2cccnc2)CC1 [Compound 185, N-(4-(4-hydroxy-4-(pyridin-3-ylmethyl)piperidine-1-carbonyl)phenyl)quinoline-8-sulfonamide] | < 100 | 101 to 1000 | < 100 | 101 to 1000
O=C(c1ccc(NS(=O)(=O)c2cccc3cccnc23)c(Cl)c1)N1CCC(O)(c2ccccc2Cl)CC1 [Compound 222, N-(2-chloro-4-(4-(2-chlorophenyl)-4-hydroxypiperidine-1-carbonyl)phenyl)quinoline-8-sulfonamide] | < 100 | < 100 | < 100 | 101 to 1000
CC(C)CC1(O)CCN(C(=O)c2ccc(NS(=O)(=O)c3cccc4c3OCO4)cc2)CC1 [Compound 423] | < 100 | < 100 | < 100 | 101 to 1000
O=C(c1ccc(NS(=O)(=O)c2cccc3cccnc23)cc1)N1CCC(O)(c2cccc(C(F)(F)F)n2)CC1 [Compound 174, N-[4-[4-hydroxy-4-[6-(trifluoromethyl)pyridin-2-yl]piperidine-1-carbonyl]phenyl]quinoline-8-sulfonamide] | < 100 | < 100 | < 100 | 101 to 1000
CC(C)(O)CC1(O)CCN(C(=O)c2ccc(NS(=O)(=O)c3cccc4cccnc34)cc2)CC1 [Compound 241, N-(4-(4-hydroxy-4-(2-hydroxy-2-methylpropyl)piperidine-1-carbonyl)phenyl)quinoline-8-sulfonamide] | 101 to 1000 | 101 to 1000 | 101 to 1000 | 1010 to 10000
O=C(c1ccc(NS(=O)(=O)c2cccc3cccnc23)cc1)N1CCC(O)(c2ncccc2F)CC1 [Compound 148, N-(4-(4-(3-fluoropyridin-2-yl)-4-hydroxypiperidine-1-carbonyl)phenyl)quinoline-8-sulfonamide] | < 100 | 101 to 1000 | < 100 | 101 to 1000
O=C(c1ccc(NS(=O)(=O)c2cccc3cccnc23)cc1F)N1CCC(O)(c2ccccc2Cl)CC1 [Compound 193, N-(4-(4-(2-chlorophenyl)-4-hydroxypiperidine-1-carbonyl)-3-fluorophenyl)quinoline-8-sulfonamide] | < 100 | < 100 | < 100 | 101 to 1000
O=C(c1ccc(NS(=O)(=O)c2cccc3cccnc23)cc1)N1CCC(O)(c2ccc(F)cc2Cl)CC1 [Compound 111, N-[4-[4-(2-chloro-4-fluoro-phenyl)-4-hydroxy-piperidine-1-carbonyl]phenyl]quinoline-8-sulfonamide] | < 100 | < 100 | < 100 | < 100
O=C(c1ccc(NS(=O)(=O)c2cccc3cccnc23)cc1)N1CCC(O)(c2ccc(F)cc2)CC1 [Compound 194, N-(4-(4-(4-fluorophenyl)-4-hydroxypiperidine-1-carbonyl)phenyl)quinoline-8-sulfonamide] | < 100 | < 100 | < 100 | 101 to 1000
O=C(c1ccc(NS(=O)(=O)c2cccc3c(O)ncnc23)cc1)N1CCC(O)(CCCC(F)(F)F)CC1 [Compound 427] | < 100 | < 100 | < 100 | < 100
O=C(c1ccc(NS(=O)(=O)c2cccc3cccnc23)cc1)N1CCC(O)(Cc2c(F)cccc2F)CC1 [Compound 120, N-(4-(4-(2,6-difluorobenzyl)-4-hydroxypiperidine-1-carbonyl)phenyl)quinoline-8-sulfonamide] | < 100 | < 100 | < 100 | < 100
O=C(c1ccc(NS(=O)(=O)c2cccc3cccnc23)cc1Cl)N1CCC(O)(c2ccccc2Cl)CC1 [Compound 157, N-(3-chloro-4-(4-(2-chlorophenyl)-4-hydroxypiperidine-1-carbonyl)phenyl)quinoline-8-sulfonamide] | < 100 | < 100 | < 100 | 101 to 1000
O=C(c1ccc(NS(=O)(=O)c2cc(F)cc3cccnc23)cc1)N1CCC(O)(c2ccccc2)CC1 [Compound 196, 6-fluoro-N-(4-(4-hydroxy-4-phenylpiperidine-1-carbonyl)phenyl)quinoline-8-sulfonamide] | < 100 | 101 to 1000 | < 100 | 101 to 1000
O=C(c1ccc(NS(=O)(=O)c2cccc3cccnc23)cc1)N1CCC(O)(c2cccc(OC(F)(F)F)c2)CC1 [Compound 245, N-(4-(4-hydroxy-4-(3-(trifluoromethoxy)phenyl)piperidine-1-carbonyl)phenyl)quinoline-8-sulfonamide] | 101 to 1000 | 1010 to 10000 | 101 to 1000 | 1010 to 10000
O=C(c1ccc(NS(=O)(=O)c2cccc3scnc23)cc1)N1CCC(O)(Cc2ccccc2C(F)(F)F)CC1 [Compound 125] | < 100 | < 100 | < 100 | < 100
O=C(c1ccc(NS(=O)(=O)c2cccc3nccnc23)cc1)N1CCC(O)(CCC=C(F)F)CC1 [Compound 399, N-(4-(4-(4,4-difluorobut-3-en-1-yl)-4-hydroxypiperidine-1-carbonyl)phenyl)quinoxaline-5-sulfonamide] | < 100 | < 100 | < 100 | < 100
